Data: US20250381242A1 (INVAIO SCIENCES, INC., priority 2024, published 2025)
No end group written: not given here.

Assays:
E. coli = experiment: Bacterial growth inhibition by OD600 absorbance, E. coli; format: cell-based, E. coli (DH5-alpha); conditions: peptide 10 μM, 24 hours at 37° C., OD 600 nm
Description: (§1) Antimicrobial activity of antimicrobial peptides was tested against the agricultural microbial pests A. tumefaciens, E. amylovora, E. coli, and X. citri, using OD absorbance measurement to detect bacterial growth.
(§2) Antimicrobial peptides were synthesized using solid phase peptide synthesis method and resuspended in 10% DMSO to a 1 mM stock concentration. The stock solution was aliquoted in cryovials and stored at −80° C.
(§3) An aliquot of 198 μl of the bacterial culture was added to each well in a 96-well plate and 2 μl of a 1 mM peptide stock solution was added to each well, for a final treatment concentration of 10 μM of a given peptide. Media only wells were included to control for contamination. The positive controls were 50 μg/ml oxytetracycline hydrochloride and 500 μg/ml streptomycin sulfate. A 0.1% DMSO treatment was included as a negative control.
(§4) An initial absorbance reading of the bacterial suspensions was taken at 600 nm. Then, the bacteria were grown in an incubator at 30° C. (A. tumefaciens, E. amylovora, X. citri) or 37° C. (E. coli) for 24 hours, after which the final absorbance reading was measured. Using the initial and final absorbance reading compared to negative and positive controls, the percent inhibition of the bacterial strain by given peptide treatment was determined.

X. citri = experiment: Bacterial growth inhibition by OD600 absorbance, X. citri; format: cell-based, X. citri subsp. citri (ATCC 49118); conditions: peptide 10 μM, 24 hours at 30° C., OD 600 nm
Description: as §1, §2, §3, §4

A. tumefaciens = conditions: 24 h, 10 μM
E. amylovora = conditions: 24 h, 10 μM

| Compound | growth inhibition, E. coli (E. coli) | growth inhibition, X. citri (X. citri) | growth inhibition, A. tumefaciens (A. tumefaciens) | growth inhibition, E. amylovora (E. amylovora) |
| --- | --- | --- | --- | --- |
| KLLLKWKLKLLK [compound 126] | <90% | <90% | <90% | <90% |
| FQWQRNMRKVR [compound 124] | <90% | <90% | <90% | <90% |
| KWLKKWLKWLKK [compound 102] | 100.00% | <90% | 100.00% | 100.00% |
| FKVQNQHGQVVKIFHH [compound 89] | <90% | <90% | <90% | <90% |
| KKKKWKLFKKIGIGKFL [compound 75] | <90% | 100.00% | <90% | 100.00% |
| KKPLLKKLLKKL [compound 133] | <90% | <90% | <90% | <90% |
| FKKLKKLFKKILKLK [compound 95] | <90% | <90% | 99.80% | 100.00% |
| INWKKIKKKVAGML [compound 108] | <90% | 100.00% | <90% | 95.63% |
| KLRKLFRKLLKLIRKLLR [compound 65] | 95.59% | <90% | <90% | <90% |
| GFWGKLWKPVKKAI [compound 107] | <90% | <90% | <90% | <90% |
| GWRTLLKKAEVKTVGKLALKHYL [compound 32] | <90% | <90% | <90% | <90% |
| FFHHIFRGIVHVGKTKHRLVTG [compound 37] | <90% | <90% | <90% | <90% |
| ILKKIWKPIKKLF [compound 109] | <90% | <90% | <90% | <90% |
| FRIRVRVAKKFGKAFVGEIM [compound 64] | <90% | <90% | <90% | <90% |
| KWKLFKKIGPGKFLHSAKKF [compound 60] | <90% | <90% | <90% | <90% |
| KWKSFLKTLKSPVKTVFYTALKPISS [compound 22] | 100.00% | 100.00% | 100.00% | 100.00% |

| Compound | growth inhibition, E. coli (E. coli) | growth inhibition, X. citri (X. citri) | growth inhibition, A. tumefaciens (A. tumefaciens) | growth inhibition, E. amylovora (E. amylovora) |
| --- | --- | --- | --- | --- |
| INWLKIAKKVKGML [compound 111] | <90% | 100.00% | <90% | 100.00% |
| IRVKIRVKIRVK [compound 128] | 100.00% | <90% | 97.32% | 99.30% |
| NKVKEWIKYLKSLFS [compound 96] | <90% | <90% | 100.00% | 100.00% |
| KWKSFLKTFKSAKKTSLHTALKAISS [compound 26] | <90% | <90% | <90% | <90% |
| ALKSLLATLSKAKKKKLKTLLAALSK [compound 31] | <90% | 100.00% | 100.00% | 100.00% |
| NAGSLLSGWG [compound 144] | <90% | <90% | <90% | <90% |
| KKWRKWLAKKKKK [compound 101] | <90% | <90% | <90% | <90% |
| KWLLKLKLKLLK [compound 125] | <90% | <90% | <90% | <90% |
| AMWKDVLKKIGTVALHAGKAALGAVADTISQ [compound 17] | <90% | 100.00% | 100.00% | <90% |
| FAKKLAKKLKKLAKKLAK [compound 80] | <90% | <90% | 98.82% | 100.00% |
| MQFITDLIKKAVDFIKGLFGNK [compound 43] | 94.72% | <90% | <90% | <90% |
| FPFLKLSLKIPKSAIKSAIKRL [compound 1] | <90% | <90% | <90% | <90% |
| IGKLFKRIVQRILKFLRNL [compound 63] | 97.14% | <90% | <90% | <90% |
| VKLVYPLKVKLYP [compound 119] | <90% | <90% | <90% | <90% |
| CC[C@H](C)[C@H](NC(=O)[C@H](CO)NC(=O)[C@H](CC(N)=O)NC(=O)[C@H](CC(C)C)NC(=O)[C@H](Cc1ccc(O)cc1)NC(=O)[C@H](CCCCN)NC(=O)[C@H](CCCCN)NC(=O)[C@@H](NC(=O)[C@H](C)NC(=O)[C@H](CCSC)NC(=O)[C@H](CCC(N)=O)NC(=O)[C@H](CCCCN)NC(=O)[C@H](CCCNC(=N)N)NC(=O)[C@H](CC(C)C)NC(=O)[C@H](CCCNC(=N)N)NC(=O)[C@@H](NC(=O)[C@H](Cc1ccc(O)cc1)NC(=O)[C@H](CC(N)=O)NC(=O)[C@H](CC(=O)O)NC(=O)[C@@H](NC(=O)[C@H](Cc1ccccc1)NC(=O)[C@@H](NC(=O)[C@H](C)NC(=O)[C@H](CC(=O)O)NC(=O)[C@H](CO)NC(=O)[C@@H](N)Cc1c[nH]cn1)C(C)C)[C@@H](C)O)[C@@H](C)O)C(C)C)C(=O)N[C@@H](CC(C)C)C(=O)N[C@@H](CC(N)=O)C(=O)O [compound 12] | <90% | 93.86% | <90% | <90% |
| YSLQMGATAIKQVKKLFKKKGG [compound 56] | <90% | <90% | <90% | <90% |
